Read-outs that look alike come from different tables or passages of the source.
Legend:
[1] = system: NRF2 mediated gene NAD(P)H:quinone acceptor oxidoreductase 1 (NQO1) in BEAS-2B cells; experiment: Beas2B NQO1 mRNA Cell Based Assay; parameters: species or system human; details: Homo sapiens
Outline: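 BEAS-2B cells treated 24 h with compound; NQO1 mRNA measured by one-step TaqMan RT-PCR on crude lysates, normalised to beta actin by ΔΔCT. Fold increase over 0.1% DMSO vehicle; EC50 from four-parameter logistic fit.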

[2] = biological target: T1, human KEAP1 (N-term, residues 321-609) (Homo sapiens, UniProt Q14145); experiment: KEAP1 Kelch Fluorescence Polarization (FP) Assay; assay type: binding; details: inhibition of Kelch domain-NRF2 interaction; 2 nM FITC-labelled NRF2 peptide, 25 nM KEAP1, 1 h room temperature; compounds below 10 nM cannot be differentiated
T1 construct: human KEAP1 (N-term, residues 321-609)
Outline: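 FP competition: 2 nM FITC-NRF2 peptide (LDEETGEFL) with 25 nM KEAP1 Kelch domain, pH 8.0 Tris buffer, 0.5% DMSO, 1 h at room temperature; 12-point 1:3 dilutions from 10 μM.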

[3] = BEAS-2B cells, compound for 24 h, increase in NQO1 mRNA compared to vehicle (0.1% DMSO) control, read-out: EC50

T1 sequence (Q14145 321-609): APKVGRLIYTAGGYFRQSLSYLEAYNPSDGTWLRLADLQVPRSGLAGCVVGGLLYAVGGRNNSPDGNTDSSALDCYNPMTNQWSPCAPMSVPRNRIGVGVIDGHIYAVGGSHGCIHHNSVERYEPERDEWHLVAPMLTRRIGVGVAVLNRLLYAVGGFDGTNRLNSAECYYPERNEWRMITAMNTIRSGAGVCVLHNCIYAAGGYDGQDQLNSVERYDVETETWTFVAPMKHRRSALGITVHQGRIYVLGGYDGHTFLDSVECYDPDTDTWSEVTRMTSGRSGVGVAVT

IC50 [2]	Structure (SMILES)	EC50 [1, 3]	EC50 ([1]; BEAS-2B, 24 h)
0.017 µM	CNC(=O)[C@@]1(C)CCCC[C@H]1C(=O)N1CCc2c(Cl)ccc(OCc3nnn(C)c3COC)c2[C@H]1CN1C[C@H](C)CC1=O [Example 105, (1S,2R)-2-((S)-5-chloro-8-((5-(methoxymethyl)-1-methyl-1H-1,2,3-triazol-4-yl)methoxy)-1-(((R)-4-methyl-2-oxopyrrolidin-1-yl)methyl)-1,2,3,4-tetrahydroisoquinoline-2-carbonyl)-N,1-dimethylcyclohexane-1-carboxamide]	0.79 µM	–
0.0089 µM	CNC(=O)[C@@]1(C)CCCC[C@H]1C(=O)N1CCc2c(Cl)ccc(OCc3nnn(C)c3C(F)(F)F)c2[C@H]1CN1CC2(CC2)CC1=O [Example 97, (1S,2R)-2-((S)-5-chloro-8-((1-methyl-5-(trifluoromethyl)-1H-1,2,3-triazol-4-yl)methoxy)-1-((6-oxo-5-azaspiro[2.4]heptan-5-yl)methyl)-1,2,3,4-tetrahydroisoquinoline-2-carbonyl)-N,1-dimethylcyclohexane-1-carboxamide]	0.114 µM	–
0.0071 µM	CNC(=O)[C@@]1(C)CCCC[C@H]1C(=O)N1CCc2c(Cl)cc(F)c(OCc3cn(C)nn3)c2[C@H]1CN1CC2(CC2)CC1=O [Example 110, (1S,2R)-2-((S)-5-chloro-7-fluoro-8-((1-methyl-1H-1,2,3-triazol-4-yl)methoxy)-1-((6-oxo-5-azaspiro[2.4]heptan-5-yl)methyl)-1,2,3,4-tetrahydroisoquinoline-2-carbonyl)-N,1-dimethylcyclohexane-1-carboxamide]	0.066 µM	–
0.0094 µM	CNC(=O)[C@H]1CCCC[C@H]1C(=O)N1CCc2c(Cl)ccc(OCc3nnc4ccccn34)c2[C@H]1CN1CCCC1=O [Example 73, (1S,2R)-2-((S)-8-([1,2,4]triazolo[4,3-a]pyridin-3-ylmethoxy)-5-chloro-1-((2-oxopyrrolidin-1-yl)methyl)-1,2,3,4-tetrahydroisoquinoline-2-carbonyl)-N-methylcyclohexane-1-carboxamide]	0.288 µM	–
0.851 µM	CNC(=O)[C@@]1(C)CCCC[C@H]1C(=O)N1CCc2c(Cl)ccc(OCc3cn(C)nn3)c2[C@H]1CN1CCCC1=O [Example 93, (1S,2R)-2-((S)-5-chloro-8-((1-methyl-1H-1,2,3-triazol-4-yl)methoxy)-1-((2-oxopyrrolidin-1-yl)methyl)-1,2,3,4-tetrahydroisoquinoline-2-carbonyl)-N,1-dimethylcyclohexane-1-carboxamide]	> 10 µM	–
0.0067 µM	CNC(=O)[C@@]1(C)CCCC[C@H]1C(=O)N1CCc2c(Cl)cc(F)c(OCc3nnn(C)c3C(F)F)c2[C@H]1CN1CC2(CC2)CC1=O [Example 106, (1S,2R)-2-((S)-5-chloro-8-((5-(difluoromethyl)-1-methyl-1H-1,2,3-triazol-4-yl)methoxy)-7-fluoro-1-((6-oxo-5-azaspiro[2.4]heptan-5-yl)methyl)-1,2,3,4-tetrahydroisoquinoline-2-carbonyl)-N,1-dimethylcyclohexane-1-carboxamide]	0.025 µM	–
0.0078 µM	CNC(=O)[C@@]1(C)CCC[C@H]1C(=O)N1CCc2c(Cl)ccc(OCc3nnn(C)c3C(F)F)c2[C@H]1CN1CCCC1=O [Example 85, (1S,2R)-2-((S)-5-chloro-8-((5-(difluoromethyl)-1-methyl-1H-1,2,3-triazol-4-yl)methoxy)-1-((2-oxopyrrolidin-1-yl)methyl)-1,2,3,4-tetrahydroisoquinoline-2-carbonyl)-N,1-dimethylcyclopentane-1-carboxamide]	0.33 µM	–
0.0074 µM	CNC(=O)[C@@]1(C)CCCC[C@H]1C(=O)N1CCc2c(Cl)ccc(OCc3nnn(C)c3C3CC3)c2[C@H]1CN1CCCC1=O [Example 99, (1S,2R)-2-((S)-5-chloro-8-((5-cyclopropyl-1-methyl-1H-1,2,3-triazol-4-yl)methoxy)-1-((2-oxopyrrolidin-1-yl)methyl)-1,2,3,4-tetrahydroisoquinoline-2-carbonyl)-N,1-dimethylcyclohexane-1-carboxamide]	0.109 µM	–
0.037 µM	CNC(=O)[C@@]1(C)CCCC[C@H]1C(=O)N1CCc2c(Cl)ccc(OCc3nnn(C)c3C(F)F)c2[C@H]1CN1CCC(C)C1=O (single isomer, unassigned) [Example 96]	3.19 µM	–
0.041 µM	CNC(=O)[C@H]1CCCC[C@H]1C(=O)N1CCc2c(Cl)ccc(OCc3cncnc3)c2[C@H]1CN1CCCC1=O [Example 64, (1S,2R)-2-((S)-5-chloro-1-((2-oxopyrrolidin-1-yl)methyl)-8-(pyrimidin-5-ylmethoxy)-1,2,3,4-tetrahydroisoquinoline-2-carbonyl)-N-methylcyclohexane-1-carboxamide]	5.75 µM	–
0.0064 µM	Cn1nnc(COc2ccc(Cl)c3c2[C@@H](CN2CC4(CC4)CC2=O)N(C(=O)[C@@H]2CCCC[C@]2(C)C(N)=O)CC3)c1C(F)F [Example 100, (1S,2R)-2-((S)-5-chloro-8-((5-(difluoromethyl)-1-methyl-1H-1,2,3-triazol-4-yl)methoxy)-1-((6-oxo-5-azaspiro[2.4]heptan-5-yl)methyl)-1,2,3,4-tetrahydroisoquinoline-2-carbonyl)-1-methylcyclohexane-1-carboxamide]	0.026 µM	–

The next lines start with the compound.

Structure (SMILES)	IC50 [2]	EC50 [1, 3]	EC50 ([1]; BEAS-2B, 24 h)
CCNC(=O)[C@H]1CCCC[C@H]1C(=O)N1CCc2cccc(O[C@H]3CCN(C(=O)c4cncs4)C3)c2[C@H]1CN1C(=O)c2ccccc2C1=O [Example 42, (1S,2R)-2-((S)-1-((1,3-dioxoisoindolin-2-yl)methyl)-8-(((S)-1-(thiazole-5-carbonyl)pyrrolidin-3-yl)oxy)-1,2,3,4-tetrahydroisoquinoline-2-carbonyl)-N-ethylcyclohexane-1-carboxamide]	0.053 µM	0.58 µM	–
CNC(=O)[C@H]1CCCC[C@H]1C(=O)N1CCc2c(Cl)ccc(OCc3cnccn3)c2[C@H]1CN1CCCC1=O [Example 62, (1S,2R)-2-((S)-5-chloro-1-((2-oxopyrrolidin-1-yl)methyl)-8-(pyrazin-2-ylmethoxy)-1,2,3,4-tetrahydroisoquinoline-2-carbonyl)-N-methylcyclohexane-1-carboxamide]	0.082 µM	1.46 µM	–
CNC(=O)N1CC2(CC2)C[C@H]1C(=O)N1CCc2c(Cl)ccc(OCc3nnn(C)c3C(F)F)c2[C@H]1CN1CCCC1=O [Example 88, (S)-6-((S)-5-chloro-8-((5-(difluoromethyl)-1-methyl-1 H-1,2,3-triazol-4-yl)methoxy)-1-((2-oxopyrrolidin-1-yl)methyl)-1,2,3,4-tetrahydroisoquinoline-2-carbonyl)-N-methyl-5-azaspiro[2.41]heptane-5-carboxamide]	0.067 µM	–	7.56 µM
CNC(=O)[C@H]1CCCC[C@H]1C(=O)N1CCc2cccc(O[C@H]3CCN(C(=O)c4cc(C)on4)C3)c2[C@H]1CN1C(=O)c2ccccc2C1=O [Example 20, (1S,2R)-2-((S)-1-((1,3-dioxoisoindolin-2-yl)methyl)-8-(((S)-1-(5-methylisoxazole-3-carbonyl)pyrrolidin-3-yl)oxy)-1,2,3,4-tetrahydroisoquinoline-2-carbonyl)-N-methylcyclohexane-1-carboxamide]	0.029 µM	> 0.5 µM	–
CNC(=O)[C@H]1CCCC[C@H]1C(=O)N1CCc2c(Br)ccc(OCc3nnn(C)c3C(F)F)c2[C@H]1CN1Cc2ccccc2C1=O [Example 56, (1S,2R)-2-((S)-5-bromo-8-((5-(difluoromethyl)-1-methyl-1H-1,2,3-triazol-4-yl)methoxy)-1-((1-oxoisoindolin-2-yl)methyl)-1,2,3,4-tetrahydroisoquinoline-2-carbonyl)-N-methylcyclohexane-1-carboxamide]	0.013 µM	0.124 µM	–
NC(=O)[C@H]1CCCC[C@H]1C(=O)N1CCc2c(Cl)ccc(OCc3noc4ccccc34)c2[C@H]1CN1CCCC1=O [Example 54, (1S,2R)-2-((S)-8-(benzo[d]isoxazol-3-ylmethoxy)-5-chloro-1-((2-oxopyrrolidin-1-yl)methyl)-1,2,3,4-tetrahydroisoquinoline-2-carbonyl)cyclohexane-1-carboxamide, reference compound]	0.031 µM	0.135 µM	–
CNC(=O)[C@H]1CCCC[C@H]1C(=O)N1CCc2c(Cl)ccc(OCc3ccccn3)c2[C@H]1CN1CCCC1=O [Example 63, (1S,2R)-2-((S)-5-chloro-1-((2-oxopyrrolidin-1-yl)methyl)-8-(pyridin-2-ylmethoxy)-1,2,3,4-tetrahydroisoquinoline-2-carbonyl)-N-methylcyclohexane-1-carboxamide]	0.34 µM	> 10 µM	–
CNC(=O)[C@H]1CCCC[C@H]1C(=O)N1CCc2c(Cl)ccc(OCc3cccnn3)c2[C@H]1CN1CCCC1=O [Example 61, (1S,2R)-2-((S)-5-chloro-1-((2-oxopyrrolidin-1-yl)methyl)-8-(pyridazin-3-ylmethoxy)-1,2,3,4-tetrahydroisoquinoline-2-carbonyl)-N-methylcyclohexane-1-carboxamide]	0.034 µM	1.08 µM	–
